Experiments:
Assay in all cases: KINOMEscan competition binding
Details in all cases: compound 10.0 µM
AKT1 (human) = AKT1 (human) (UniProt P31749)
ROCK2 (human) = ROCK2 (human) (UniProt O75116)
MAP3K1 (human) = MAP3K1 (human) (UniProt Q13233)
MATK (human) = MATK (human) (UniProt P42679)
DSTYK (human) = DSTYK (human) (UniProt Q6XUX3)
ACVRL1 (human) = ACVRL1 (human) (UniProt P37023)
EPHB1 (human) = EPHB1 (human) (UniProt P54762)
CDK13 (human) = CDK13 (human) (UniProt Q14004)
STK4 (human) = STK4 (human) (UniProt Q13043)
NEK6 (human) = NEK6 (human) (UniProt Q9HC98)
PLK2 (human) = PLK2 (human) (UniProt Q9NYY3)
NEK5 (human) = NEK5 (human) (UniProt Q6P3R8)
FGFR3 (human) = FGFR3 (human) (UniProt P22607)
CDK4 CCND3 (human) = CDK4 CCND3 (human) (UniProt P11802+P30281)
CRK2 (P.falciparum) = CRK2 (P.falciparum) (UniProt P61075)
RIOK2 (human) = RIOK2 (human) (UniProt Q9BVS4)
CAMKK1 (human) = CAMKK1 (human) (UniProt Q8N5S9)
EPHB4 (human) = EPHB4 (human) (UniProt P54760)
STK24 (human) = STK24 (human) (UniProt Q9Y6E0)
SIK2 (human) = SIK2 (human) (UniProt Q9H0K1)
FRK (human) = FRK (human) (UniProt P42685)
STK17A (human) = STK17A (human) (UniProt Q9UEE5)
NEK7 (human) = NEK7 (human) (UniProt Q8TDX7)
[1] = molecular target: TYK2 JH2 pseudokinase (human) (UniProt P29597)
MINK1 (human) = MINK1 (human) (UniProt Q8N4C8)
AAK1 (human) = AAK1 (human) (UniProt Q2M2I8)
MAP3K9 (human) = MAP3K9 (human) (UniProt P80192)
MARK2 (human) = MARK2 (human) (UniProt Q7KZI7)
MAPK13 (human) = MAPK13 (human) (UniProt O15264)
PAK7 (human) = PAK7 (human) (UniProt Q9P286)
MAP3K4 (human) = MAP3K4 (human) (UniProt Q9Y6R4)
FGFR4 (human) = FGFR4 (human) (UniProt P22455)
ACVR1 (human) = ACVR1 (human) (UniProt Q04771)
[2] = molecular target: JAK2 JH1 catalytic (human) (UniProt O60674)
MAP3K3 (human) = MAP3K3 (human) (UniProt Q99759)
MUSK (human) = MUSK (human) (UniProt O15146)
CAMKK2 (human) = CAMKK2 (human) (UniProt Q96RR4)
PIK3C2G (human) = PIK3C2G (human) (UniProt O75747)
ITK (human) = ITK (human) (UniProt Q08881)
LTK (human) = LTK (human) (UniProt P29376)

Sequence of MAP3K4 (human) (Q9Y6R4 whole entry, looked up): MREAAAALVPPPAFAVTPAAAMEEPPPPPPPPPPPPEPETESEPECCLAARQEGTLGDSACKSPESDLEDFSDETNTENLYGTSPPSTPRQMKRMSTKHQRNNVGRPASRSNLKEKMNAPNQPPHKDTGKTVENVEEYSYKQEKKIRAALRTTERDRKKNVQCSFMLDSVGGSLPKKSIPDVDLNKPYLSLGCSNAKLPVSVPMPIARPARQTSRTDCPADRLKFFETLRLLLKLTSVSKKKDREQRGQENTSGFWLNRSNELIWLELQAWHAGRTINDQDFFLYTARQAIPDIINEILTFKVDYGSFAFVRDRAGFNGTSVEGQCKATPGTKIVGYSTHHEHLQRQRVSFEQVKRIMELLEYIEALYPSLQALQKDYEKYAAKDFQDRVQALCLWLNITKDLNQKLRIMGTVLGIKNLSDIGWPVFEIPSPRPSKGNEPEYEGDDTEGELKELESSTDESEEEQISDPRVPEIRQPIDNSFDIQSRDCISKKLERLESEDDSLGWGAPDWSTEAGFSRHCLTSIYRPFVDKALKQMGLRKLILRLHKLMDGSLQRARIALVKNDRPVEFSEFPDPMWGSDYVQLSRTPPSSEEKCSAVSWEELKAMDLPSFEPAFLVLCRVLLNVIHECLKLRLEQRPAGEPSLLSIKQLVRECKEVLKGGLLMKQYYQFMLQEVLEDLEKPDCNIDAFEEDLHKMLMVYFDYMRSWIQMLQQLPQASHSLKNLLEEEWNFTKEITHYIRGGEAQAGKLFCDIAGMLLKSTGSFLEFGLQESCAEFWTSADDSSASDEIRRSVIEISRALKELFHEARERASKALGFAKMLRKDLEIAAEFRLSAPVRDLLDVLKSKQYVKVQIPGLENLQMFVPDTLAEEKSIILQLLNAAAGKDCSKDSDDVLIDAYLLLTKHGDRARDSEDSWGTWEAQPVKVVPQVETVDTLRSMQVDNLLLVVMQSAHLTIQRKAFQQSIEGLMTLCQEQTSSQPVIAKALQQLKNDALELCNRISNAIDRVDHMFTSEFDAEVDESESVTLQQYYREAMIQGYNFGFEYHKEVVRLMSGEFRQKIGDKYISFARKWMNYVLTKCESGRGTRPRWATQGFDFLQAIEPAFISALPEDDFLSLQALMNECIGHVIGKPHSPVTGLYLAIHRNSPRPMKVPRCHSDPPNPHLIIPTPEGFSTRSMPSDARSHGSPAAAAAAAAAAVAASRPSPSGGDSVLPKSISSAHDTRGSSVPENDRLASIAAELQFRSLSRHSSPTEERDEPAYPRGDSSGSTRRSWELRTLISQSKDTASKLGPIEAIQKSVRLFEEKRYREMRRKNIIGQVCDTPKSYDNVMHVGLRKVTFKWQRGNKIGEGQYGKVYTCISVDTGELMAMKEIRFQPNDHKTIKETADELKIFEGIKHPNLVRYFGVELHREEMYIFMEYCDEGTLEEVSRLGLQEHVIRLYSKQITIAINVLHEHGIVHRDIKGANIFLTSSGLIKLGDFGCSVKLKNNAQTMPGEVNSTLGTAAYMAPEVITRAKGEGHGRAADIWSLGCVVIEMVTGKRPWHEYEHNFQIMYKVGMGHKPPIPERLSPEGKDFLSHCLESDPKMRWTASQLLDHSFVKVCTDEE
Sequence of PLK2 (human) (Q9NYY3 whole entry, looked up): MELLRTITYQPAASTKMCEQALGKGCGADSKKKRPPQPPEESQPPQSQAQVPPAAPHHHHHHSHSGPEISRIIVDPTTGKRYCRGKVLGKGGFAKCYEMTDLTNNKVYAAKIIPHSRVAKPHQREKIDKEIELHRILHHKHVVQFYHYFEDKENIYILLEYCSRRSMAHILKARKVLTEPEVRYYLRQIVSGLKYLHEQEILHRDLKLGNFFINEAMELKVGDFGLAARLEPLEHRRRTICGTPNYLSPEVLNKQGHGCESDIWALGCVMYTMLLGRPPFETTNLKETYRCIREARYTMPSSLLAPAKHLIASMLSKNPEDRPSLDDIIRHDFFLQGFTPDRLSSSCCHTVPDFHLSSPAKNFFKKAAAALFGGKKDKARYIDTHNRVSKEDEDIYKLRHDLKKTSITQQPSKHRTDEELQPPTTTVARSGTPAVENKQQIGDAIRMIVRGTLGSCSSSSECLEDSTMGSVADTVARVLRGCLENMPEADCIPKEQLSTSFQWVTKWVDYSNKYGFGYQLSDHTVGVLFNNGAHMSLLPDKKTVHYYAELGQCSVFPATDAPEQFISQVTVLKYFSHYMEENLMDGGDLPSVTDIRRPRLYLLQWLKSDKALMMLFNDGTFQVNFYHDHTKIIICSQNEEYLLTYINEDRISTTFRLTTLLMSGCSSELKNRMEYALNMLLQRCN
Sequence of JAK2 JH1 catalytic (human) (O60674 whole entry, looked up): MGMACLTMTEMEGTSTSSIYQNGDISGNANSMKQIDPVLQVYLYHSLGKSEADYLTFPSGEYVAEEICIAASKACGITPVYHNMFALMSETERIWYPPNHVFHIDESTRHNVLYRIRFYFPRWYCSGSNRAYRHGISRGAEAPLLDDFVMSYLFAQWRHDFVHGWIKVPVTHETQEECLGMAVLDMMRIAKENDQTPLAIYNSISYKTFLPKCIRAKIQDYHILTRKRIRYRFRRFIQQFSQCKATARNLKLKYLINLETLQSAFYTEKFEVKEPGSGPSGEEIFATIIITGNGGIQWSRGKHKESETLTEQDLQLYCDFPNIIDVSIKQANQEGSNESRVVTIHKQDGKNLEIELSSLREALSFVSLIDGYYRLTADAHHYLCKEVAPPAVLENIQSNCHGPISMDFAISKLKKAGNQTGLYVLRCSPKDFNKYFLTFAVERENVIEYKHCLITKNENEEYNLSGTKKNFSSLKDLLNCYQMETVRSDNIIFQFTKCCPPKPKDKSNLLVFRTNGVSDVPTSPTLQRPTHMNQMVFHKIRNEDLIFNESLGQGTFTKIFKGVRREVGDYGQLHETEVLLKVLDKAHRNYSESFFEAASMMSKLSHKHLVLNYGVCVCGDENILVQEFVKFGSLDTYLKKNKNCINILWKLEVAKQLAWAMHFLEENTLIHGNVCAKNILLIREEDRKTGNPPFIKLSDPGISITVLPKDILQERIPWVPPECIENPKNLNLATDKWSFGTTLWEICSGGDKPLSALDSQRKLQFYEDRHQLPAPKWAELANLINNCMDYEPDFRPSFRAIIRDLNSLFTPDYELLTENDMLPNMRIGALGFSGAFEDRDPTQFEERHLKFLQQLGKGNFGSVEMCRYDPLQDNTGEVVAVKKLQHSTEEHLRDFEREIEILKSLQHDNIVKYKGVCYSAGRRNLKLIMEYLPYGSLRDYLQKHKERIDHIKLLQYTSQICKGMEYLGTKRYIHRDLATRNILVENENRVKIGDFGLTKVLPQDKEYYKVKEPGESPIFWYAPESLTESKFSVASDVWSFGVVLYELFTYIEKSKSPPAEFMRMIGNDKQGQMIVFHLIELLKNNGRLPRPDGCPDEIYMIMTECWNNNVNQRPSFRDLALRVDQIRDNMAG
Sequence of MINK1 (human) (Q8N4C8 whole entry, looked up): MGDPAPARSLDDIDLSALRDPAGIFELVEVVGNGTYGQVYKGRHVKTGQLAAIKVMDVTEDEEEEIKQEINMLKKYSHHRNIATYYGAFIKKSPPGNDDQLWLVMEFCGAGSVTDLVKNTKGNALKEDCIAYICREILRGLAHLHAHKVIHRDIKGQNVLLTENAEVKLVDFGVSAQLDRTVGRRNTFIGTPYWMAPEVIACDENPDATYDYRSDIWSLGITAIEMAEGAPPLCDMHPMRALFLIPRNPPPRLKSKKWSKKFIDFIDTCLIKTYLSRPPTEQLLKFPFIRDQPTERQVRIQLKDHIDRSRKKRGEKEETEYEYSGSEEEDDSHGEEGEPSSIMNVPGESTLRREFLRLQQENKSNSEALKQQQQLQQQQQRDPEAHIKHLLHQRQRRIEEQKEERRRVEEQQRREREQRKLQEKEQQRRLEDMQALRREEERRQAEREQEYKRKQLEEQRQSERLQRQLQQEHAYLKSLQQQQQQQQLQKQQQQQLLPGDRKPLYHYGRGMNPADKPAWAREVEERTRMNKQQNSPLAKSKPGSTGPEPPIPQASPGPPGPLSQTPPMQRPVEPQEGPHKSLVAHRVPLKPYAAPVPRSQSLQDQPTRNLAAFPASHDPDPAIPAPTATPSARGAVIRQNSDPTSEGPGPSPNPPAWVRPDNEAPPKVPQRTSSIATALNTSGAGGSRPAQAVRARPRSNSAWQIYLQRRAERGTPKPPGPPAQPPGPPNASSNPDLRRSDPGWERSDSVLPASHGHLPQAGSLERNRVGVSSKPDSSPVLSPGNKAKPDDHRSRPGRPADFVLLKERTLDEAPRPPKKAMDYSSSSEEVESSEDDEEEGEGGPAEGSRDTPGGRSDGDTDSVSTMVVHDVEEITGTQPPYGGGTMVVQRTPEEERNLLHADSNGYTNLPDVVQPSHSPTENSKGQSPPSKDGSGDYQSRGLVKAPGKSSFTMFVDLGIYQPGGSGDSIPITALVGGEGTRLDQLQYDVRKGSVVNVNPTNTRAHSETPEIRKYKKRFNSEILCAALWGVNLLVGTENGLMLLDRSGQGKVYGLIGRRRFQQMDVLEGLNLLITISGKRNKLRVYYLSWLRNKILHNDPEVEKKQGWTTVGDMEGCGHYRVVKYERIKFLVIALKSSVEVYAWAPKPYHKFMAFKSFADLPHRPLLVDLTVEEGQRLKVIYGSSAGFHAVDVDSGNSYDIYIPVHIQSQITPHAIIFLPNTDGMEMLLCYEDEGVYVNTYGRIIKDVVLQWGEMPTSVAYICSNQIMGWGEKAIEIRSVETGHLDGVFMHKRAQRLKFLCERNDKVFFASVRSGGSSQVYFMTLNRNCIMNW
Sequence of MAPK13 (human) (O15264 whole entry, looked up): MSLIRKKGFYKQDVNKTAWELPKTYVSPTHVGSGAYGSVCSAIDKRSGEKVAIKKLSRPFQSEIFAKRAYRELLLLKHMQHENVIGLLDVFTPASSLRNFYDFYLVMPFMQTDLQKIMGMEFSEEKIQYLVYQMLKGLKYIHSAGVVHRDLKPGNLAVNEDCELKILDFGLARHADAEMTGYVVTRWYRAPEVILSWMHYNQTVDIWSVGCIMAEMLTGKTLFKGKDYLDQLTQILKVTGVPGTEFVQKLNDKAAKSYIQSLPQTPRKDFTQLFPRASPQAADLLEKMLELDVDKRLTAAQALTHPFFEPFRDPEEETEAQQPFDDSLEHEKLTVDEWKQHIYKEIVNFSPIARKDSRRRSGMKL

SMILES	kinase still bound, per cent of control (AKT1 (human)) [%]	kinase still bound, per cent of control (ROCK2 (human)) [%]	kinase still bound, per cent of control (MAP3K1 (human)) [%]	kinase still bound, per cent of control (MATK (human)) [%]	kinase still bound, per cent of control (DSTYK (human)) [%]	kinase still bound, per cent of control (ACVRL1 (human)) [%]	kinase still bound, per cent of control (EPHB1 (human)) [%]	kinase still bound, per cent of control (CDK13 (human)) [%]	kinase still bound, per cent of control (STK4 (human)) [%]	kinase still bound, per cent of control (NEK6 (human)) [%]	kinase still bound, per cent of control (PLK2 (human)) [%]	kinase still bound, per cent of control (NEK5 (human)) [%]	kinase still bound, per cent of control (FGFR3 (human)) [%]	kinase still bound, per cent of control (CDK4 CCND3 (human)) [%]	kinase still bound, per cent of control (CRK2 (P.falciparum)) [%]	kinase still bound, per cent of control (RIOK2 (human)) [%]	kinase still bound, per cent of control (CAMKK1 (human)) [%]	kinase still bound, per cent of control (EPHB4 (human)) [%]	kinase still bound, per cent of control (STK24 (human)) [%]	kinase still bound, per cent of control (SIK2 (human)) [%]	also measured
CNC(=O)Nc1ccc(-c2nc(N3CC4CCC(C3)O4)c3cnn(C4CCC5(CC4)OCCO5)c3n2)cc1	81	100	58	100	100	100	90	84	100	90	100	81	83	92	100	90	100	100	96	97	kinase still bound, per cent of control (FRK (human)): 68%; kinase still bound, per cent of control (STK17A (human)): 100%; kinase still bound, per cent of control (NEK7 (human)): 100%; kinase still bound, per cent of control [1]: 100%; kinase still bound, per cent of control (MINK1 (human)): 100%; kinase still bound, per cent of control (AAK1 (human)): 100%; kinase still bound, per cent of control (MAP3K9 (human)): 97%; kinase still bound, per cent of control (MARK2 (human)): 100%; kinase still bound, per cent of control (MAPK13 (human)): 16%; kinase still bound, per cent of control (PAK7 (human)): 100%; kinase still bound, per cent of control (MAP3K4 (human)): 86%; kinase still bound, per cent of control (FGFR4 (human)): 62%; kinase still bound, per cent of control (ACVR1 (human)): 90%; kinase still bound, per cent of control [2]: 100%; kinase still bound, per cent of control (MAP3K3 (human)): 100%; kinase still bound, per cent of control (MUSK (human)): 92%; kinase still bound, per cent of control (CAMKK2 (human)): 100%; kinase still bound, per cent of control (PIK3C2G (human)): 22%; kinase still bound, per cent of control (ITK (human)): 88%; kinase still bound, per cent of control (LTK (human)): 68%
N#C/C(=C1/Nc2ccccc2S1)c1ccnc(NCCc2cccnc2)n1	100	23	65	100	51	100	100	61	100	100	47	100	92	49	100	2.4	83	100	80	82	kinase still bound, per cent of control (FRK (human)): 100%; kinase still bound, per cent of control (STK17A (human)): 100%; kinase still bound, per cent of control (NEK7 (human)): 84%; kinase still bound, per cent of control [1]: 1.4%; kinase still bound, per cent of control (MINK1 (human)): 45%; kinase still bound, per cent of control (AAK1 (human)): 10%; kinase still bound, per cent of control (MAP3K9 (human)): 74%; kinase still bound, per cent of control (MARK2 (human)): 75%; kinase still bound, per cent of control (MAPK13 (human)): 51%; kinase still bound, per cent of control (PAK7 (human)): 76%; kinase still bound, per cent of control (MAP3K4 (human)): 100%; kinase still bound, per cent of control (FGFR4 (human)): 100%; kinase still bound, per cent of control (ACVR1 (human)): 86%; kinase still bound, per cent of control [2]: 45%; kinase still bound, per cent of control (MAP3K3 (human)): 74%; kinase still bound, per cent of control (MUSK (human)): 100%; kinase still bound, per cent of control (CAMKK2 (human)): 54%; kinase still bound, per cent of control (PIK3C2G (human)): 8.8%; kinase still bound, per cent of control (ITK (human)): 100%; kinase still bound, per cent of control (LTK (human)): 100%

Source: the kinase profiling compilation of Christmann-Franck et al. (2016)
